# Active and inactive are the calls of the source. The rule behind the calls is not given here.
# Experiments:
# [1] = Selectivity ratio of IC50 for human DHFR to Candida glabrata DHFR
# Dihydrofolate reductase [2] = biological target: T1, Dihydrofolate reductase (Homo sapiens, UniProt P00374); assay: Inhibition of human DHFR
# T1 sequence (P00374 whole entry): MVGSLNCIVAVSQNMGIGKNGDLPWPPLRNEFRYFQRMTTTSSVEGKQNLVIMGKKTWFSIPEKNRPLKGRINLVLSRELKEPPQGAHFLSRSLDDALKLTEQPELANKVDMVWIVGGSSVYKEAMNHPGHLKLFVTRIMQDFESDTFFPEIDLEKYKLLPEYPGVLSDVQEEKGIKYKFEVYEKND
# [3] = Selectivity ratio of IC50 for human DHFR to Candida albicans DHFR
# Nakaseomyces glabratus [4] = assay: Binding affinity to Candida glabrata DHFR at 1 mM incubated for 2 hrs by crystallographic analysis in presence of 1 mM NADPH
# Dihydrofolate reductase [5] = biological target: T2, Dihydrofolate reductase (Candida albicans, UniProt P22906); assay: Inhibition of Candida albicans DHFR
# T2 sequence (P22906 whole entry): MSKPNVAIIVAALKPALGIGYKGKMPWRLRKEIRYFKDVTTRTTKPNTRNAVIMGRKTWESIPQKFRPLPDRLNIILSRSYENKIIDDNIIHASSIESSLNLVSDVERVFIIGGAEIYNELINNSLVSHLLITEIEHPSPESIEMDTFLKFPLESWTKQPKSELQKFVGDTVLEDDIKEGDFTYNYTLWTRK
# [6] = Inhibition of Candida glabrata DHFR; design: species or system Nakaseomyces glabratus
# [7] = biological target: T3, Dihydrofolate reductase (Candida albicans) (UniProt P22906); assay: Binding affinity to Candida albicans DHFR at 1 mM incubated for 2 hrs by crystallographic analysis in presence of 1 mM NADPH
# T3 sequence (whole entry): T2 sequence (P22906 whole entry)
# Nakaseomyces glabratus [8] = assay: Antifungal activity against Candida glabrata; assay type: functional
# Candida albicans = assay: Antifungal activity against Candida albicans; assay type: functional
SMILES,Ratio IC50 [1],IC50 (Dihydrofolate reductase [2]),Ratio IC50 [3],Activity (Nakaseomyces glabratus [4]),IC50 (Dihydrofolate reductase [5]),IC50 [6],Activity [7],MIC (Nakaseomyces glabratus [8]),MIC (Candida albicans)
COc1cc(-c2ccc(C)cc2)cc(C(C)C#Cc2c(C)nc(N)nc2N)c1 (configuration not stated),,,,Active,,0.6 nM,Active,1.5 µg/mL,1.5 µg/mL
COc1cc(C(C)C#Cc2c(C)nc(N)nc2N)cc(N2CCOCC2)c1 (configuration not stated),20,,19,,21 nM,20 nM,,,
CCc1nc(N)nc(N)c1C#CC(C)c1cc(OC)cc(-c2ccncc2)c1 (configuration not stated),15,,22,Active,60 nM,89 nM,Active,,
CCc1nc(N)nc(N)c1C#CC(C)c1cc(OC)cc(-c2ccc3c(c2)OCCO3)c1 (configuration not stated),14,260 nM,11,,23 nM,18 nM,,,
CCc1nc(N)nc(N)c1C#CC(C)c1cc(OC)cc(-c2cccc3cnccc23)c1 (configuration not stated),4.1,45 nM,2.6,,17 nM,11 nM,,,

# Continued, values first:
Ratio IC50 [1],IC50 (Dihydrofolate reductase [2]),Ratio IC50 [3],Activity (Nakaseomyces glabratus [4]),IC50 (Dihydrofolate reductase [5]),IC50 [6],Activity [7],MIC (Nakaseomyces glabratus [8]),MIC (Candida albicans),SMILES
11,250 nM,11,Active,23 nM,22 nM,,,,CCc1nc(N)nc(N)c1C#CC(C)c1cc(OC)cc(N2CCOCC2)c1 (configuration not stated)
26,,9,,33 nM,11 nM,,,,COc1cc(C(C)(C)C#Cc2c(C)nc(N)nc2N)cc(OC)c1OC
15,,25,,61 nM,97 nM,,,,COc1cc(-c2ccncc2)cc(C(C)C#Cc2c(C)nc(N)nc2N)c1 (configuration not stated)
7.4,140 nM,1.8,Active,78 nM,19 nM,Active,,,CCc1nc(N)nc(N)c1C#CCc1cc(OC)cc(-c2ccc3c(c2)OCCO3)c1
3.8,60 nM,0.84,,71 nM,16 nM,,,,CCc1nc(N)nc(N)c1C#CCc1cc(OC)cc(-c2cccc3cnccc23)c1
,,,,,8.2 nM,,,,CCc1nc(N)nc(N)c1C#CCc1cc(OC)ccc1OC

# — ChEMBL document CHEMBL2331301, “Structural analysis of the active sites of dihydrofolate reductase from two species of Candida uncovers ligand-induced conformational changes shared among species” (Bioorg Med Chem Lett, 2013)
